Columns and labels:
B.st. spores [1] = test: Antibiotic detection test in spiked milk, Trizma/succinate culture of Example 7 (Table 5); format: cell-based, Bacillus (Geobacillus) Stearothermophilus; settings: for 16 hr Result / % Pos (16 hr Result): 16 hours later; for % Pos (Result) / Result: immediately after test completion
Method: A Trizma/Succinate solution was prepared by adding 2.5 grams Trizma Base and 6 grams Succinate to 100 mL of reverse osmosis/deionized water (RO/DI Water) in a 125 mL flask. 40 milligrams of BCP (see example 1 for BCP preparation) was then added to a 50 mL conical tube and 25 mL of the Trizma/Succinate solution was added to the 40 milligrams BCP and mixed.
The media was prepared by dissolving 5 grams glucose and 1 gram Mueller Hinton Broth in 100 mL RO/DI Water. 1.2 mL of a 0.01 mg/mL solution of trimethoprim in RO/DI water was added to the media. 20 mL of the BCP/Trizma/Succinate preparation was added to the media and the media was sterile filtered through a 0.45 micron filter and cooled to 4 degrees C.
0.3 grams Difco Bacto-Agar (Item #0140-01), 0.225 NaCl and 17 mL of RO/DI water was combined and mixed and heated the mixture to 95° C. The mixture was removed from the heat and allowed it to cool to 75° C. and then 6 mL media (with BCP/Tris) was added and mixed for 5 minutes. The mixture was cooled to 57° C. and 2 mL spore (concentration of 1 billion cfu/mL) was added and mixed for 5 minutes. 0.200 mL was dispensed into the bottom of each vial.
In test operation 200 microliters of various milk samples, spiked with known concentrations of antibiotics, were pipetted into vials and incubated for the prescribed time (in this test 2 hours 30 minutes) and prescribed temperature (64 degrees C.+/−2 degrees C.). Results were recorded immediately after test completion and 16 hours later. Incubation was in various Charm Inctronic I incubators. Concentrations listed are in parts per billion (ppb). 4 samples were run at each concentration except 16 negative samples were run and 2 samples each for 3 ppb pen G and amoxicillin. Abbreviations are pencillin G (PenG); sulfamethazine (SMZ); sulfadimethoxine (SDM); tylosin (TY); gentamicin (G); oxytetracycline (OT); pirlimycin (Pirl); amoxicillin (Amox); ampicillin (Amp); cloxacillin (Clox); ceftiofur sodium (Ceft); cephaprin (Ceph); tilmicosin (Til); sulfadoxine (SDN); neomycin (Neo).

B.st. spores [2] = test: Single service kidney swab microbial growth inhibition test, culture of Example 1, with or without beta-lactam receptor; format: cell-based, Bacillus (Geobacillus) Stearothermophilus; settings: for test result With receptor: with 1 U receptor
Method: A Bromocresol purple (BCP)/Tris Solution was prepared by combining 25 mL of a Trizma Base solution (TBS), the solution including 2.5 grams Trizma Base in 100 mL of reverse osmosis/deionized water (RO/DI Water), with 100 milligrams of BCP and mixing well. The media was prepared by dissolving 5 grams glucose and 1 gram Mueller Hinton Broth (Mueller Hinton broth includes, in purified filtered water, 2 grams per liter (g/L) beef extract, 17.5 g/L casein hydrolysate acid and 1.5 g/L starch, pH 7.3 at 25 degrees C) into 100 mL RO/DI Water. Then a 0.01 mg/mL solution of trimethoprim in RO/DI Water was prepared and 1.2 mL was added to the media. Next 20 mL of BCP/Tris (sterile filtered through 0.45 micron filter) was added to the media.
Agar was prepared by combining 0.3 grams Difco Bacto-Agar (Item #0140-01), 0.225 NaCl and 17.485 RO/DI Water. The mixture was heated to 95° C. and then removed from the heat and allowed to cool to 75° C. Next 6 mL of media (prepared as described above with BCP/Tris) was added to the agar and mixed for 5 minutes. The mixture was cooled to 57° C. and 1 mL spore solution (concentration of 1 billion cfu/mL) was added and mixed together for 5 minutes. 0.200 mL was dispensed into the bottom of a vial 4.
The dispensed vial 4 was prepared as described in example 1. An extractant was prepared by adding 4.8 grams of 47.2% Trizma Base and 52.5% Potassium Phosphate Monobasic to 1000 mL RO/DI Water (pH should be 7.5+/−0.10). The extractant was sealed within the niblet 5 and the niblet was added to the vial 4. The vial 4 was heat sealed with foil.
The single service kidney swab procedure was run by first making a 3 inch incision into kidney. The swab 1 was then withdrawn from the test unit, the test unit in the form of a POCKETSWAB, by gently pulling and twisting the handle 2 out of the test unit body 7. The swab 1 was then inserted into the incision of the kidney and allowed to sit for 15 minutes to allow full absorption of liquid into the swab 1. The swab 1 was reinserted by gently pushing down and twisting to engage the threads 6 and screwing the handle down slowly about halfway. The swab tip 3 punctured the seals 12, 13 & 14 immersing the swab tip 3 into the extractant within the niblet 5 where it sat for 2 minutes. The swab 1 was then screwed down all the way. After shaking and tapping the vial 4 to get residual liquid into the bottom of the vial 4 and in contact with the culture 15, we placed the vial 4 into a heat block set at 67° C. and incubated for 2.5 hours (if urine is tested instead of kidney, incubate for 4 hours).
Culture is prepared as in Example 1. Prior to dispensing 200 microliters into the vial 4, antibiotic binder is prepared, in this example an antibiotic binder from the cell wall of B.st., also known as receptor. Varying amounts of inhibitory receptor units are mixed into the culture. Receptor is defined as protein removed from cellular membrane of B.st. A receptor unit (1 U) is the amount of receptor that will, in the test, reverse the culture growth inhibition of 12.5 ppb of penicillin G.
Results in Table 1 are from tests using the culture described in Example 1 and with the addition of receptor added into rinse buffer (rinse buffer composition is 4.8 grams of 47.2% Trizma Base and 52.5% Potassium Phosphate Monobasic to 1000 mL RO/DI Water) at 0, 0.3 units (U), 1.0 U, 2.0 U, 5.0 Upper test. Sample contained the following amounts of penicillin G: 0, 5 parts per billion (ppb), 10 ppb, 12.5 ppb, 25 ppb and 50 ppb. As shown, 1.0 U was able to reverse the result of a 12.5 ppb penicillin G sample. Results are either positive (+) or negative (−).
Results are either positive (+), negative (−) or borderline between positive and negative (+/−). Abbreviations are penicillin G (PenG); sulfamethazine (SMZ); sulfadimethoxine (SDM); tylosin (TY); gentamicin (G); oxytetracycline (OT). […]

[3] = drug concentration 300 (unit not given)
[4] = drug concentration 500 (unit not given)
[5] = drug concentration 800 (unit not given)
[6] = drug concentration 400 (unit not given)
[7] = drug concentration 600 (unit not given)

CC[C@H]1OC(=O)C[C@@H](O)[C@H](C)[C@@H](O[C@@H]2O[C@H](C)[C@@H](O[C@H]3C[C@@](C)(O)[C@@H](O)[C@H](C)O3)[C@H](N(C)C)[C@H]2O)[C@@H](CC=O)C[C@@H](C)C(=O)/C=C/C(C)=C/[C@@H]1CO[C@@H]1O[C@H](C)[C@@H](O)[C@@H](OC)[C@H]1OC [TY, tylosin]
+/−: test result w/out receptor (B.st. spores [2]; [3]) | test result With receptor (B.st. spores [2]; [3])
Pos: 16 hr Result (B.st. spores [1]; milk spiked at 40 ppb) | Result (B.st. spores [1]; milk spiked at 40 ppb) | 16 hr Result (B.st. spores [1]; milk spiked at 50 ppb) | Result (B.st. spores [1]; milk spiked at 50 ppb)
+: test result w/out receptor (B.st. spores [2]; [4]) | test result With receptor (B.st. spores [2]; [4]) | test result w/out receptor (B.st. spores [2]; [5]) | test result With receptor (B.st. spores [2]; [5])
100%: % Pos (16 hr Result) (B.st. spores [1]; milk spiked at 40 ppb) | % Pos (Result) (B.st. spores [1]; milk spiked at 40 ppb) | % Pos (16 hr Result) (B.st. spores [1]; milk spiked at 50 ppb) | % Pos (Result) (B.st. spores [1]; milk spiked at 50 ppb)

gentamicin
Pos: 16 hr Result (B.st. spores [1]; milk spiked at 300 ppb) | Result (B.st. spores [1]; milk spiked at 300 ppb) | 16 hr Result (B.st. spores [1]; milk spiked at 400 ppb) | Result (B.st. spores [1]; milk spiked at 400 ppb)
100%: % Pos (16 hr Result) (B.st. spores [1]; milk spiked at 300 ppb) | % Pos (Result) (B.st. spores [1]; milk spiked at 300 ppb) | % Pos (16 hr Result) (B.st. spores [1]; milk spiked at 400 ppb) | % Pos (Result) (B.st. spores [1]; milk spiked at 400 ppb)
+/−: test result w/out receptor (B.st. spores [2]; [6]) | test result With receptor (B.st. spores [2]; [6]) | test result w/out receptor (B.st. spores [2]; [7]) | test result With receptor (B.st. spores [2]; [7]) | test result w/out receptor (B.st. spores [2]; [5]) | test result With receptor (B.st. spores [2]; [5])
